# Laboratory results published in patent publication US20230072860A1, “ISOXAZOLINE OXIME FORMATE COMPOUND, PREPARATION METHOD THEREFOR, HERBICIDAL COMPOSITION AND USE THEREOF” (QINGDAO KINGAGROOT CHEMICAL COMPOUND CO., LTD., priority 2020, published 2023).
# Columns and labels:
# Assay in all cases: Experiment on weeding effect in post-emergence stage
# Assay type in all cases: in vivo
# Conditions in all cases: dose 15 g a.i./ha, fresh weight control rate level
# Abutilon theophrasti = test system: Abutilon theophrasti
# Text: (§1) Experiment on weeding effect in post-emergence stage:
# (§2) Monocotyledonous and dicotyledonous weed seeds (Descurainia sophia, Capsella bursa-pastoris, Abutilon theophrasti, Galium aparine, Stellaria media, Lithospermum arvense, Rorippa indica, Alopecurus aequalis, Alopecurus japonicus, Beckmannia syzigachne, Sclerochloa dura, Conyza Canadensis, Phleum paniculatum, Veronica didyma Tenore, Eleusine indica, Bromus japonicus, Aegilops tauschii, Phalaris arundinacea, Amaranthus retroflexus, Chenopodium album, Commelina communis, Sonchus arvensis, Convolvulus arvensis, Cirsium setosum, Solanum nigrum, Acalypha australis, Digitaria sanguinalis, Echinochloa crusgalli, Setaria viridis, Setaria glauca, Leptochloa chinensis, Monochoria vaginalis, Sagittaria trolia, Scirpus juncoides, Cyperus rotundus, Cyperus iria, Cyperus difformis, Elmbristylis, Portulaca oleracea, Xanthium sibiricum, Pharbitis nil) and major crop seeds (wheat, corn, rice, soybean, cotton, oilseed rape, millet, sorghum, potato, sesame, ricinus) were placed in plastic pots filled with soil, then covered with 0.5-2 cm of soil, allowed to grow in a good greenhouse environment. After 2 weeks of sowing, the test plants were treated in the 2-3 leaf stage. The tested compounds of the present invention were respectively dissolved in acetone, then added with Tween 80 and 1.5 liter/ha of emulsifiable concentrate of methyl oleate as synergist, diluted with a certain amount of water to obtain a solution with a certain concentration, and sprayed with a spray tower onto the plants. After the application, the plants were cultured for 3 weeks in the greenhouse, and then the experimental results of the weeding were counted. The doses of the used compounds were 500, 250, 125, 60, 15 g a.i./ha, and the averages were obtained by repeating for three times.
# Amaranthus retroflexus = test system: Amaranthus retroflexus
# Text: as §1, §2
# Digitaria sanguinalis = test system: Digitaria sanguinalis
# Text: as §1, §2
# Echinochloa crusgalli = test system: Echinochloa crusgalli
# Text: as §1, §2
# Eleusine indica = test system: Eleusine indica
# Text: as §1, §2
# Galium aparine = test system: Galium aparine
# Text: as §1, §2
# Leptochloa chinensis = test system: Leptochloa chinensis
# Text: as §1, §2
# Setaria viridis = test system: Setaria viridis
# Text: as §1, §2
# Veronica didyma Tenore = test system: Veronica didyma Tenore
# Text: as §1, §2
SMILES,"weeding effect in post-emergence stage, Abutilon theophrasti (level) (Abutilon theophrasti)","weeding effect in post-emergence stage, Amaranthus retroflexus (level) (Amaranthus retroflexus)","weeding effect in post-emergence stage, Digitaria sanguinalis (level) (Digitaria sanguinalis)","weeding effect in post-emergence stage, Echinochloa crusgalli (level) (Echinochloa crusgalli)","weeding effect in post-emergence stage, Eleusine indica (level) (Eleusine indica)","weeding effect in post-emergence stage, Galium aparine (level) (Galium aparine)","weeding effect in post-emergence stage, Leptochloa chinensis (level) (Leptochloa chinensis)","weeding effect in post-emergence stage, Setaria viridis (level) (Setaria viridis)","weeding effect in post-emergence stage, Veronica didyma Tenore (level) (Veronica didyma Tenore)"
Cn1c(=S)n(C)c(=S)n(-c2cc(C3=NOC(C)(C(=O)ON=C(c4ccccc4)c4ccccc4)C3)c(Cl)cc2F)c1=O (stereo not drawn) [Compound 71],5 (Level 5: growth control rate is above 85%),5 (Level 5: growth control rate is above 85%),5 (Level 5: growth control rate is above 85%),5 (Level 5: growth control rate is above 85%),5 (Level 5: growth control rate is above 85%),5 (Level 5: growth control rate is above 85%),5 (Level 5: growth control rate is above 85%),5 (Level 5: growth control rate is above 85%),5 (Level 5: growth control rate is above 85%)
CC=NOC(=O)C1(C)CC(c2cc(-n3c(=O)n(C)c(=S)n(C)c3=O)c(F)cc2Cl)=NO1 (mixture of isomers) [Compound 2],5 (Level 5: growth control rate is above 85%),5 (Level 5: growth control rate is above 85%),5 (Level 5: growth control rate is above 85%),5 (Level 5: growth control rate is above 85%),5 (Level 5: growth control rate is above 85%),5 (Level 5: growth control rate is above 85%),5 (Level 5: growth control rate is above 85%),5 (Level 5: growth control rate is above 85%),5 (Level 5: growth control rate is above 85%)
Cc1ccc(C=NOC(=O)C2(C)CC(c3cc(-n4c(=O)n(C)c(=S)n(C)c4=O)c(F)cc3Cl)=NO2)s1 (mixture of isomers) [Compound 118],5 (Level 5: growth control rate is above 85%),5 (Level 5: growth control rate is above 85%),5 (Level 5: growth control rate is above 85%),5 (Level 5: growth control rate is above 85%),5 (Level 5: growth control rate is above 85%),5 (Level 5: growth control rate is above 85%),5 (Level 5: growth control rate is above 85%),5 (Level 5: growth control rate is above 85%),5 (Level 5: growth control rate is above 85%)
CC/C(C)=N/OC(=O)C1(C)CC(c2cc(-n3c(=O)n(C)c(=S)n(C)c3=S)c(F)cc2Cl)=NO1 (stereo not drawn) [Compound 57],5 (Level 5: growth control rate is above 85%),5 (Level 5: growth control rate is above 85%),5 (Level 5: growth control rate is above 85%),5 (Level 5: growth control rate is above 85%),5 (Level 5: growth control rate is above 85%),5 (Level 5: growth control rate is above 85%),5 (Level 5: growth control rate is above 85%),5 (Level 5: growth control rate is above 85%),5 (Level 5: growth control rate is above 85%)
C/C(=N\OC(=O)C1(C)CC(c2cc(-n3c(=O)n(C)c(=S)n(C)c3=S)c(F)cc2Cl)=NO1)C1CC1 (stereo not drawn) [Compound 61],5 (Level 5: growth control rate is above 85%),5 (Level 5: growth control rate is above 85%),5 (Level 5: growth control rate is above 85%),5 (Level 5: growth control rate is above 85%),5 (Level 5: growth control rate is above 85%),5 (Level 5: growth control rate is above 85%),5 (Level 5: growth control rate is above 85%),5 (Level 5: growth control rate is above 85%),5 (Level 5: growth control rate is above 85%)
COC/C(C)=N/OC(=O)C1(C)CC(c2cc(-n3c(=O)n(C)c(=S)n(C)c3=S)c(F)cc2Cl)=NO1 (stereo not drawn) [Compound 68],5 (Level 5: growth control rate is above 85%),5 (Level 5: growth control rate is above 85%),5 (Level 5: growth control rate is above 85%),5 (Level 5: growth control rate is above 85%),5 (Level 5: growth control rate is above 85%),5 (Level 5: growth control rate is above 85%),5 (Level 5: growth control rate is above 85%),5 (Level 5: growth control rate is above 85%),5 (Level 5: growth control rate is above 85%)
CCOC(=O)C(C)=NOC(=O)C1(C)CC(c2cc(-n3c(=O)n(C)c(=S)n(C)c3=O)c(F)cc2Cl)=NO1 (stereo not drawn) [Compound 123],5 (Level 5: growth control rate is above 85%),5 (Level 5: growth control rate is above 85%),5 (Level 5: growth control rate is above 85%),5 (Level 5: growth control rate is above 85%),5 (Level 5: growth control rate is above 85%),5 (Level 5: growth control rate is above 85%),5 (Level 5: growth control rate is above 85%),5 (Level 5: growth control rate is above 85%),5 (Level 5: growth control rate is above 85%)
CCO/C(C)=N/OC(=O)C1(C)CC(c2cc(-n3c(=O)n(C)c(=S)n(C)c3=S)c(F)cc2Cl)=NO1 (stereo not drawn) [Compound 67],5 (Level 5: growth control rate is above 85%),5 (Level 5: growth control rate is above 85%),5 (Level 5: growth control rate is above 85%),5 (Level 5: growth control rate is above 85%),5 (Level 5: growth control rate is above 85%),5 (Level 5: growth control rate is above 85%),5 (Level 5: growth control rate is above 85%),5 (Level 5: growth control rate is above 85%),5 (Level 5: growth control rate is above 85%)
CC(C)=NOC(=O)C1(C)CC(c2cc(-n3c(=O)cc(C(F)(F)F)n(C)c3=O)c(F)cc2Cl)=NO1 (stereo not drawn) [Compound 160],5 (Level 5: growth control rate is above 85%),5 (Level 5: growth control rate is above 85%),5 (Level 5: growth control rate is above 85%),5 (Level 5: growth control rate is above 85%),5 (Level 5: growth control rate is above 85%),5 (Level 5: growth control rate is above 85%),5 (Level 5: growth control rate is above 85%),5 (Level 5: growth control rate is above 85%),5 (Level 5: growth control rate is above 85%)
